Legend:
Format in all cases: cell-based, human
hiPSCs (SES8) = experiment: Cell chip cyclic voltammetry (ipc) and cell number of hiPSCs after YM155 treatment; conditions: 24 h after dose-dependent YM155 treatment (FIG. 6A)
Procedure: (§1) hESCs (H9; Wicell Research Institute) and hiPSCs (SES8; (32)) were cultured in mTeSR1 medium (StemCell Technologies) under feeder-free conditions. hASMCs and i-dSMCs were cultured in smooth muscle cell-specific medium, SMCM (ScienCell Research Laboratories), and hDFs were cultured in DMEM medium (Gibco) supplemented with 10% FBS and 0.1% gentamycin. Alkaline phosphatase staining was performed according to the direction included in the Alkaline Phosphatase Kit (Sigma).
(§2) Cyclic voltammetry (CV) method was carried out using a CHIe660C Potentiostat (CH Instruments, Austin, Tex., USA). A fabricated chip, based on an Au electrode as a working electrode, an Ag/AgCl (1M KCl) as a reference electrode, and a Pt wire as a counter electrode was used. For the electrochemical measurement, cells were washed with PBS (0.01 M, PH 7.4). […] All measurements were replicated at least three times, and the cell number was calculated following detection.
(§3) The present inventors reported two kinds of small molecules for inducing the selective apoptosis of undifferentiated hPSCs in previous studies (33). […] Label-free cell chip-based quantification of residual undifferentiated hPSCs may be applied at the end stage, which is critical to determine whether any additional treatment of undifferentiated cells is required in order to ensure safety of tumor-free cell therapy. […]

hESCs (H9) = experiment: Cell chip cyclic voltammetry (ipc) of hESCs after YM155 treatment; conditions: 24 h after dose-dependent YM155 treatment (FIG. 6B)
Procedure: as §1, §2, §3

[1] = test system: hiPSCs co-cultured with hASMCs; experiment: Cell chip ipc and colony morphology in mixed culture of hiPSCs and hASMCs after YM155 treatment
Procedure: (§4) Cyclic voltammetry (CV) method was carried out using a CHIe660C Potentiostat (CH Instruments, Austin, Tex., USA). A fabricated chip, based on an Au electrode as a working electrode, an Ag/AgCl (1M KCl) as a reference electrode, and a Pt wire as a counter electrode was used. For the electrochemical measurement, cells were washed with PBS (0.01 M, PH 7.4). CV detection was performed between −0.2 V and 0.6 V at 0.1 V/s in mTeSR1 (StemCell Technologies, #05850). All measurements were replicated at least three times, and the cell number was calculated following detection.
(§5) The present inventors reported two kinds of small molecules for inducing the selective apoptosis of undifferentiated hPSCs in previous studies (33). Therefore, it was predicted that, due to the induction of apoptosis by YM-155, treatment with YM-155 would decrease the number of hPSCs and thereby lower the ipc. […] Label-free cell chip-based quantification of residual undifferentiated hPSCs may be applied at the end stage, which is critical to determine whether any additional treatment of undifferentiated cells is required in order to ensure safety of tumor-free cell therapy. To mimic this situation, hiPSCs were co-cultured with hASMCs. After the co-culture in the cell chip, hiPSCs still maintained the specific colony morphology of hPSCs (FIG. 6C, left panel, black dotted line), but after 24 h of YM155 treatment, there was a typical colony morphology in hiPSCs but not in hASMCs (FIG. 6C, right panel, red dotted line).

[2] = test system: SSEA3-positive vs SSEA3-negative populations of hESC mixed culture; experiment: Active caspase-3 apoptosis FACS in mixed culture of hESCs and differentiated cells derived therefrom; conditions: 40 nM, mixed culture of hESCs and differentiated cells derived therefrom (FIG. 10)
Excerpt: Cells were stained with respective fluorescent-labeled antibodies and analyzed using FACSCalibur (BD Biosciences). The following antibodies were used: Oct4 (Abcam), FITC Rat Anti-SSEA3 and PE Mouse Anti-Human TRA-1-60 (BD Pharminogen). For apoptosis assays, cells were stained using the PE Annexin V Apoptosis Detection Kit and the PE Active Caspase-3 Apoptosis Kit (BD Pharminogen) according to the manufacturer's direction.
as §5

undifferentiated hPSCs = experiment: Detection of specific cathodic peak potential (Epc) of hPSCs after YM-155 treatment; conditions: after YM-155 treatment to ablate undifferentiated hPSCs
Procedure: as §4

COCCn1c2c([n+](Cc3cnccn3)c1C)C(=O)c1ccccc1C2=O [YM-155]
cathodic peak current (ipc) (hiPSCs (SES8)): markedly reduced | number of cells (hiPSCs (SES8)): markedly reduced | cathodic peak current (ipc) (hESCs (H9)): markedly reduced | ipc level upon co-culture of hiPSCs and hASMCs ([1]; 40 nM YM155, compared with equal number of untreated hASMCs): as low as that of hASMCs | hiPSC colony morphology on the cell chip ([1]; 24 hour after treatment with 30 nM YM155, mixed culture of hiPSCs and hASMCs (FIG. 6C)): altered morphology of hiPSC colony | ipc upon co-culture of hiPSCs and hASMCs ([1]; mixed culture, 24 hours after treatment, different doses (FIG. 6D)): gradually decreased in a dose-dependent manner | apoptosis by active caspase-3 [2]: shown in only SSEA3-positive populations, not in SSEA3-negative populations | apoptosis by active caspase-3 ([2]; listed as YM-55): shown in only the SSEA3+(positive) population, but not in SSEA3-(negative) population | specific Epc of hPSCs (undifferentiated hPSCs): completely disappeared

Reference: patent US20180031513A1, “CELL CHIP-BASED QUANTITATIVE ANALYSIS OF UNDIFFERENTIATED HUMAN PLURIPOTENT STEM CELL” (SOGANG UNIVERSITY RESEARCH FOUNDATION, priority 2015, published 2018)
